Assay results from publication PMC6908673, “Tuning the in vitro sensing and signaling properties of cyanobacterial PII protein by mutation of key residues” (Scientific Reports, 2019).

How the values were obtained:
SeNAGK = target: T1, SeNAGK (Synechococcus elongatus, UniProt Q6V1L5); experiment: coupled NAGK assay (pyruvate kinase/lactate dehydrogenase, NADH oxidation); type: biochemical
T1 construct: gene argB; His6-tagged, E. coli BL21(DE3), His-Trap; hexamer, about 194 kDa
T1 sequence (Q6V1L5 1-301): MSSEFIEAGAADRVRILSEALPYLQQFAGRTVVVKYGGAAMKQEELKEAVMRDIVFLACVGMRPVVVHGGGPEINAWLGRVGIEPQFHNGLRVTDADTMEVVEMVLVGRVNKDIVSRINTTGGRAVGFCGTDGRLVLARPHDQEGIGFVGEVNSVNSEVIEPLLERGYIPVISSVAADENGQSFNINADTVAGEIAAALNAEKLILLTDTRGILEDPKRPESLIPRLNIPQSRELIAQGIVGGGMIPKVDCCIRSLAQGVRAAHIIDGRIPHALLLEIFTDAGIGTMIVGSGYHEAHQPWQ
Description: coupled NAGK assay (pyruvate kinase/lactate dehydrogenase, NADH oxidation) on SeNAGK | Arginine feedback inhibition of non-complexed SeNAGK occurred with a half maximal inhibitory concentration (IC50) of […]

PII-PipX complex = target: T2, PII-PipX complex (Synechococcus elongatus, UniProt P0A3F4); experiment: indirect SPR, His6-PipX on Ni-NTA chip; type: binding; conditions: 10 mM Hepes pH 7.5, 150 mM NaCl, 1 mM MgCl2, 25 °C
T2 construct: gene glnB; Strep-tagged PII trimer pre-incubated with His6-tagged PipX; three PipX per PII trimer; both from E. coli
T2 sequence (P0A3F4 whole entry): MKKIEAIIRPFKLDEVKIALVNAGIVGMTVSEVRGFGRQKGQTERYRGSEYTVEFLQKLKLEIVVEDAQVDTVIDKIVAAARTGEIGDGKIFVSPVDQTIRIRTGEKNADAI
T2 sequence (Q7X386 1-89 partner): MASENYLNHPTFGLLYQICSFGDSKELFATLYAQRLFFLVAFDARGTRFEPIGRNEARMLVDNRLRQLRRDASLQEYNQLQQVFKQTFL

SeNAGK + SePII = target: T3, SeNAGK + SePII (Synechococcus elongatus, UniProt Q6V1L5); experiment: coupled NAGK assay (pyruvate kinase/lactate dehydrogenase, NADH oxidation); type: biochemical; conditions: 25 µM arginine; 2-OG acts on PII site
T3 construct: gene argB; His6-tagged SeNAGK hexamer mixed with Strep-tagged SePII; two PII trimers sandwich one NAGK hexamer (WT); both from E. coli; with Nitrogen regulatory protein P-II
T3 sequence (P0A3F4 whole entry partner, one chain of several): as the sequence (P0A3F4 whole entry) above

[1] = substrate: CC(=O)N[C@@H](CCC(=O)O)C(=O)O; experiment: as above; type: biochemical, Synechococcus elongatus; conditions: without PII; without arginine
Description: coupled NAGK assay (pyruvate kinase/lactate dehydrogenase, NADH oxidation) on SeNAGK

[2] = substrate: CC(=O)N[C@@H](CCC(=O)O)C(=O)O; experiment: as above; type: biochemical, Synechococcus elongatus; conditions: with SePII (WT); without arginine
Description: coupled NAGK assay (pyruvate kinase/lactate dehydrogenase, NADH oxidation) on SeNAGK + SePII

[3] = target: the molecule itself; experiment: SEC-MALS; PII mixed with NAGK (molar ratio 3:1 PII trimers to NAGK hexamers) 10 min at room temperature; Superose 6 Increase 10/300 GL; 100 mM Tris-HCl pH 7.8, 300 mM NaCl, 2 mM MgCl2, 2% glycerol; eluted fractions checked by SDS-PAGE

Molecule: N=C(N)NCCC[C@H](N)C(=O)O [arginine]
- IC50 (SeNAGK): 11 µM

Molecule: Nc1ncnc2c1ncn2[C@@H]1O[C@H](COP(=O)(O)OP(=O)(O)O)[C@@H](O)[C@H]1O [ADP]
- indirect SPR, His6-PipX on Ni-NTA chip (PII-PipX complex; 1 mM ADP): strong positive effect of ADP on the interaction of PII (WT) with PipX

Molecule: O=C(O)CCC(=O)C(=O)O [2-OG]
- coupled NAGK assay (pyruvate kinase/lactate dehydrogenase, NADH oxidation) (SeNAGK + SePII): complex of SeNAGK-SePII (WT) showed the typical inhibitory effect upon 2-OG addition
- indirect SPR, His6-PipX on Ni-NTA chip (PII-PipX complex; 1 mM 2-OG with 1 mM ATP): 2-OG in presence of ATP impaired PipX-PII (WT) complex formation

B1: SeNAGK (Synechococcus elongatus PCC 7942 = FACHB-805) (protein)
chain: MSSEFIEAGAADRVRILSEALPYLQQFAGRTVVVKYGGAAMKQEELKEAVMRDIVFLACVGMRPVVVHGGGPEINAWLGRVGIEPQFHNGLRVTDADTMEVVEMVLVGRVNKDIVSRINTTGGRAVGFCGTDGRLVLARPHDQEGIGFVGEVNSVNSEVIEPLLERGYIPVISSVAADENGQSFNINADTVAGEIAAALNAEKLILLTDTRGILEDPKRPESLIPRLNIPQSRELIAQGIVGGGMIPKVDCCIRSLAQGVRAAHIIDGRIPHALLLEIFTDAGIGTMIVGSGYHEAHQPWQ
notes: His6-tagged, E. coli BL21(DE3), His-Trap; hexamer, about 194 kDa
- Km [1]: 5.1 ± 0.9 mM

B2: SeNAGK + SePII (Synechococcus elongatus PCC 7942 = FACHB-805) (protein)
chain: MSSEFIEAGAADRVRILSEALPYLQQFAGRTVVVKYGGAAMKQEELKEAVMRDIVFLACVGMRPVVVHGGGPEINAWLGRVGIEPQFHNGLRVTDADTMEVVEMVLVGRVNKDIVSRINTTGGRAVGFCGTDGRLVLARPHDQEGIGFVGEVNSVNSEVIEPLLERGYIPVISSVAADENGQSFNINADTVAGEIAAALNAEKLILLTDTRGILEDPKRPESLIPRLNIPQSRELIAQGIVGGGMIPKVDCCIRSLAQGVRAAHIIDGRIPHALLLEIFTDAGIGTMIVGSGYHEAHQPWQ
notes: His6-tagged SeNAGK hexamer mixed with Strep-tagged SePII; two PII trimers sandwich one NAGK hexamer (WT); both from E. coli; with Nitrogen regulatory protein P-II
- Km [2]: 2.9 ± 0.6 mM

B3: SeNAGK, N-acetyl-L-glutamate kinase from S. elongatus PCC7942, His6-tagged (enzyme)
chain: MSSEFIEAGAADRVRILSEALPYLQQFAGRTVVVKYGGAAMKQEELKEAVMRDIVFLACVGMRPVVVHGGGPEINAWLGRVGIEPQFHNGLRVTDADTMEVVEMVLVGRVNKDIVSRINTTGGRAVGFCGTDGRLVLARPHDQEGIGFVGEVNSVNSEVIEPLLERGYIPVISSVAADENGQSFNINADTVAGEIAAALNAEKLILLTDTRGILEDPKRPESLIPRLNIPQSRELIAQGIVGGGMIPKVDCCIRSLAQGVRAAHIIDGRIPHALLLEIFTDAGIGTMIVGSGYHEAHQPWQ
notes: N-acetyl-L-glutamate kinase (NAGK) of Synechococcus elongatus PCC 7942; hexamer; also called His6-NAGK
- stoichiometry N [3]: 6
